Values after ≈ are worked out from the molar mass of the structure shown. Residues, ends and D or L forms follow the SMILES beside them.
Assays:
MRSA 103 [1] = test: microbe, parasite or virus in culture; format: cell-based, Staphylococcus aureus
From the text: (§1) The test strains (Gram-negative: E. coli ATCC 25922, E. coli k88, E. coli k99, E. coli 987, P. aeruginosa ATCC PAO1, Salmonella pullorum ATCC 7731, S. pullorum ATCC 7913, and S. typhimurium ATCC 14028; Gram-positive: S. aureus ATCC 29213, S. aureus ATCC 25923, S. epidermidis ATCC 12228, MRSA ATCC 43300, MRSA 544, MRSA 103, L. rhamnosus ATCC 8014, and L. rhamnosus 1.9021) were maintained at the School of Medicine in the Shenzhen Campus of Sun Yat-sen University. Mouse RBCs were extracted from a specific pathogen-free (SPF) grade mouse.
(§2) The peptides' antimicrobial effectiveness was evaluated using a method derived from a previous publication ([59]) and modified for use in this study. Single colonies were seeded and cultured in brain–heart infusion (BHI) medium at 37°C until log-phase growth after adjustment to OD600 = 0.4, which was followed by a 1000-fold dilution with phosphate-buffered saline (PBS). Then, in sterile 96-well plates, twofold serial dilutions of the peptides were added, followed by 50-µL aliquots of the bacterial cell solution. The ultimate concentrations of the antibacterial agents were 0.125–64 μM. Moreover, bacteria and PBS were added to the TSB as positive and negative controls, respectively. The plates were placed in an incubator set at 37°C for 18 hours. The trial was conducted a minimum of three times in sets of three. Successful completion of the experiment was confirmed by observing the turbidity of the positive control and clarity of the negative control culture medium. The MIC was defined as the lowest peptide concentration required to inhibit bacterial growth.

MRSA 544 [2] = test: microbe, parasite or virus in culture; format: cell-based, Staphylococcus aureus
From the text: as §1, §2

MRSA 103 [3] = test: microbe, parasite or virus in culture; format: cell-based, Staphylococcus aureus; remark: listed apart in the source
Protocol: as §2
(§3) For MBC analysis, viable cells from all wells with no visible bacterial growth were determined on the BHI agar plates. After 24 hours of cultivation at 37°C, the MBC endpoint was defined as the minimum concentration at which 99.9% of the bacterial population was killed.

MRSA 544 [4] = test: microbe, parasite or virus in culture; format: cell-based, Staphylococcus aureus; remark: listed apart in the source
Protocol: as §2, §3

clinically isolated MRSA [5] = test: microbe, parasite or virus in culture
From the text: as §1
as §2, with “Successful completion of the experiment was confirmed by observing the turbidity of the positive control and clarity of the negative control culture medium.” left out

MRSA 544 [6] = test: Time-kill kinetics; format: cell-based, Staphylococcus aureus; conditions: 2 × MIC, 4 × MIC and 8 × MIC, 0–7 hours
Protocol: MRSA 544 was cultured to the logarithmic phase (OD600 = 0.4) and diluted 1000-fold with PBS. […] At various periods (0, 5, 10, 15, 20, 25, 30, and 60 minutes), microbial suspensions were serially diluted (10-, 100-, and 1000-fold) with PBS, and 10 µL of the diluted suspension was plated on tryptic soy agar (TSA) medium. Single colonies of microorganisms were counted after 12-hour incubation at 37°C. The processing steps of vancomycin were the same as those of AMP W5, but with different concentrations (2 × MIC, 4 × MIC, and 8 × MIC) and periods (0, 1, 2, 3, 4, 5, 6, and 7 hours). Average values were calculated and plotted after six repetitions.

clinically isolated MRSA [7] = format: cell-based, Staphylococcus aureus; conditions: 18 h
Protocol: as §2, §3

standard MRSA strains = format: cell-based, Staphylococcus aureus; conditions: 18 h
From the text: as §1
as §2, with “Successful completion of the experiment was confirmed by observing the turbidity of the positive control and clarity of the negative control culture medium. The MIC was defined as the lowest peptide concentration required to inhibit bacterial growth.” left out

BALB/c mice = test: In vivo safety assessment; set-up: species or system mouse; conditions: 10 mg/kg intravenously, five days after injection
Protocol: The in vivo safety assessment and antibacterial activity analysis of the peptides were performed using a murine skin infection model wherein 25 SPF-grade 6- to 8-week-old female mice (BALB/c) were randomly divided into five cages (n = 5 in each cage). The animals were housed individually in ventilated cages (IVC), at a temperature of 20°C–24°C, humidity of 50%–60%, and a 12-hour day–night cycle.
Two groups of five mice were randomly divided and intravenously injected with 100 µL PBS or a 10 mg/kg solution of AMP W5 diluted with PBS. Five days after injection, all animals were euthanized. The weight of each mouse was determined from day 0 to day 5. Blood samples were collected to analyze hepatorenal damage, and an automatic biochemical analyzer was used to measure indicators, including ALT, AST, ALP, BUN, CREA, and LDH. The livers and kidneys of the mice were stained with hematoxylin/eosin (HE) for histological analysis.

[8] = clinically isolated MRSA strains, 37°C, 18 hours
[9] = Staphylococcus aureus, MRSA, 18 h
[10] = Staphylococcus aureus, MRSA, 24 h

Compound | MIC (MRSA 103 [1]; 103, 18 h) | MIC (MRSA 544 [2]; 544, 18 h) | MBC (MRSA 103 [3]; 103, 24 h) | MBC (MRSA 544 [4]; 544, 24 h) | also measured
CC[C@H](C)[C@H](NC(=O)CN)C(=O)NCC(=O)N[C@@H](C)C(=O)N[C@H](C(=O)N[C@@H](CC(C)C)C(=O)N[C@@H](CCCCN)C(=O)N[C@H](C(=O)N[C@@H](CC(C)C)C(=O)N[C@H](C(=O)N[C@H](C(=O)NCC(=O)N[C@@H](CC(C)C)C(=O)N1CCC[C@H]1C(=O)N[C@@H](C)C(=O)N[C@@H](CC(C)C)C(=O)N[C@H](C(=O)N[C@@H](CO)C(=O)N[C@@H](Cc1c[nH]c2ccccc12)C(=O)N[C@H](C(=O)N[C@@H](CCCCN)C(=O)N[C@@H](CCCNC(=N)N)C(=O)N[C@@H](CCCCN)C(=O)N[C@@H](CCCNC(=N)N)C(=O)N[C@@H](CCC(N)=O)C(=O)N[C@@H](CCC(N)=O)C(N)=O)[C@@H](C)CC)[C@@H](C)CC)[C@@H](C)O)[C@@H](C)O)C(C)C)C(C)C [Melittin, reference compound] | – | – | – | – | MIC (MRSA 103 [1]; MRSA 103, twofold serial dilutions 0.125–64 μM, 96-well plates, 37°C, 18 hours, minimum of three times in sets of three): 4 µM (≈ 11.4 µg/mL); MIC (MRSA 544 [2]; MRSA 544, twofold serial dilutions 0.125–64 μM, 96-well plates, 37°C, 18 hours, minimum of three times in sets of three): 4 µM (≈ 11.4 µg/mL); MBC as multiple of MIC (MRSA 103 [3]; MRSA 103): 2 × MIC; MBC (MRSA 103 [3]; MRSA 103, BHI agar plates, 24 hours at 37°C, minimum concentration at which 99.9% killed): 8 µM (≈ 22.8 µg/mL); MBC (MRSA 544 [4]; MRSA 544, BHI agar plates, 24 hours at 37°C, minimum concentration at which 99.9% killed): 4 µM (≈ 11.4 µg/mL); MIC (clinically isolated MRSA [5]; [8]): 4 µM (≈ 11.4 µg/mL)
CN[C@H](CC(C)C)C(=O)N[C@H]1C(=O)N[C@@H](CC(N)=O)C(=O)N[C@H]2C(=O)N[C@H]3C(=O)N[C@H](C(=O)N[C@H](C(=O)O)c4cc(O)cc(O)c4-c4cc3ccc4O)[C@H](O)c3ccc(c(Cl)c3)Oc3cc2cc(c3O[C@@H]2O[C@H](CO)[C@@H](O)[C@H](O)[C@H]2O[C@H]2C[C@](C)(N)[C@H](O)[C@H](C)O2)Oc2ccc(cc2Cl)[C@H]1O [Vancomycin, reference compound] | – | – | – | – | MIC (MRSA 103 [1]; [9]): 0.5 µM (≈ 0.725 µg/mL); MIC (MRSA 544 [2]; [9]): 0.5 µM (≈ 0.725 µg/mL); MBC as multiple of MIC (MRSA 103 [3]; MRSA 103): 8 × MIC; MBC (MRSA 103 [3]; [10]): 4 µM (≈ 5.8 µg/mL); MBC as multiple of MIC (MRSA 544 [4]; MRSA 544): 8 × MIC; MBC (MRSA 544 [4]; [10]): 4 µM (≈ 5.8 µg/mL); MIC (clinically isolated MRSA [5]; [9]): 0.5 µM (≈ 0.725 µg/mL); Bactericidal effect in time-kill assay (MRSA 544 [6]): no signs of complete eradication even after 7 hours
N=C(N)NCCC[C@H](NC(=O)CNC(=O)[C@H](CO)NC(=O)CNC(=O)[C@H](CCCNC(=N)N)NC(=O)[C@@H](N)Cc1c[nH]c2ccccc12)C(=O)N[C@@H](Cc1c[nH]c2ccccc12)C(N)=O [W1] (H-WRGSGRW-NH2) | > 64 µM | > 64 µM | > 64 µM | > 64 µM | –
N=C(N)NCCC[C@H](NC(=O)CNC(=O)[C@H](CO)NC(=O)CNC(=O)[C@H](CCCNC(=N)N)NC(=O)[C@H](CCCNC(=N)N)NC(=O)[C@@H](N)Cc1c[nH]c2ccccc12)C(=O)N[C@@H](CCCNC(=N)N)C(=O)N[C@@H](Cc1c[nH]c2ccccc12)C(N)=O [W2] (H-WRRGSGRRW-NH2) | > 64 µM | > 64 µM | > 64 µM | > 64 µM | –
N=C(N)NCCC[C@H](NC(=O)CNC(=O)[C@H](CO)NC(=O)CNC(=O)[C@H](CCCNC(=N)N)NC(=O)[C@H](CCCNC(=N)N)NC(=O)[C@H](CCCNC(=N)N)NC(=O)[C@@H](N)Cc1c[nH]c2ccccc12)C(=O)N[C@@H](CCCNC(=N)N)C(=O)N[C@@H](CCCNC(=N)N)C(=O)N[C@@H](Cc1c[nH]c2ccccc12)C(N)=O [W3] (H-WRRRGSGRRRW-NH2) | > 64 µM | > 64 µM | > 64 µM | > 64 µM | –
N=C(N)NCCC[C@H](NC(=O)CNC(=O)[C@H](CO)NC(=O)CNC(=O)[C@H](CCCNC(=N)N)NC(=O)[C@H](CCCNC(=N)N)NC(=O)[C@H](CCCNC(=N)N)NC(=O)[C@H](Cc1c[nH]c2ccccc12)NC(=O)[C@@H](N)Cc1c[nH]c2ccccc12)C(=O)N[C@@H](CCCNC(=N)N)C(=O)N[C@@H](CCCNC(=N)N)C(=O)N[C@@H](Cc1c[nH]c2ccccc12)C(=O)N[C@@H](Cc1c[nH]c2ccccc12)C(N)=O [W4] (H-WWRRRGSGRRRWW-NH2) | 16 µM (≈ 30.4 µg/mL) | 16 µM (≈ 30.4 µg/mL) | 32 µM (≈ 60.8 µg/mL) | 32 µM (≈ 60.8 µg/mL) | –
N=C(N)NCCC[C@H](NC(=O)CNC(=O)[C@H](CO)NC(=O)CNC(=O)[C@H](CCCNC(=N)N)NC(=O)[C@H](CCCNC(=N)N)NC(=O)[C@H](CCCNC(=N)N)NC(=O)[C@H](Cc1c[nH]c2ccccc12)NC(=O)[C@H](Cc1c[nH]c2ccccc12)NC(=O)[C@@H](N)Cc1c[nH]c2ccccc12)C(=O)N[C@@H](CCCNC(=N)N)C(=O)N[C@@H](CCCNC(=N)N)C(=O)N[C@@H](Cc1c[nH]c2ccccc12)C(=O)N[C@@H](Cc1c[nH]c2ccccc12)C(=O)N[C@@H](Cc1c[nH]c2ccccc12)C(N)=O [W5] (H-WWWRRRGSGRRRWWW-NH2) | 8 µM (≈ 18.2 µg/mL) | 8 µM (≈ 18.2 µg/mL) | 8 µM (≈ 18.2 µg/mL) | 8 µM (≈ 18.2 µg/mL) | MIC (clinically isolated MRSA [5]; [8]): 8 µM (≈ 18.2 µg/mL); MBC (clinically isolated MRSA [7]): 8 µM (≈ 18.2 µg/mL); MIC (standard MRSA strains): 2 µM (≈ 4.55 µg/mL); HE staining of liver and kidney (BALB/c mice): no hepatotoxicity or nephrotoxicity

Reference: publication PMC11537005, “Antimicrobial activity of novel symmetrical antimicrobial peptides centered on a hydrophilic motif against resistant clinical isolates: in vitro and in vivo analyses” (Microbiology Spectrum, 2024)
